Assay results published in publication PMC10964431 (European journal of medicinal chemistry, 2024).

Experiments:
Experiment in all cases: Anti-SARS-CoV-2 activity against VOCs, WST-8 assay in VeroE6 cells
Type in all cases: cell-based
Conditions in all cases: one range stated for beta, gamma and omicron
SARS-CoV-2^TY7 (Gamma) = tested on: SARS-CoV-2^TY7 (Gamma)
SARS-CoV-2^929 (Omicron) = tested on: SARS-CoV-2^929 (Omicron)
SARS-CoV-2^TY8 (Beta) = tested on: SARS-CoV-2^TY8 (Beta)

CC(C)(C)[C@H](NC(=O)C(Cl)(Cl)Cl)C(=O)N1C[C@H]2[C@@H]([C@H]1C(=O)N[C@H](C#N)C[C@@H]1CCCNC1=O)C2(C)C [Compound 5f, (1R,2S,5S)-N-((S)-1-Cyano-2-((S)-2-oxopiperidin-3-yl)ethyl)-3-((S)-3,3-dimethyl-2-(2,2,2-trichloroacetamido)butanoyl)-6,6-dimethyl-3-azabicyclo[3.1.0]hexane-2-carboxamide]
3–5 fold: loss of antiviral activity against gamma variant (SARS-CoV-2^TY7 (Gamma)) | loss of antiviral activity against omicron variant (SARS-CoV-2^929 (Omicron)) | loss of antiviral activity against beta variant (SARS-CoV-2^TY8 (Beta))
